According to patent US8883798B2, “Pyrimidine compounds inhibiting the formation of nitric oxide and prostaglandin E2, method of production thereof and use thereof” (Ustav Organicke Chemie a Biochemie Akademie Ved CR, V.V.I., priority 2011, dated 2014):

How the values were obtained:
[1] = tested on: production of nitric oxide (NO); assay: Production of nitric oxide (NO) in cultures of mouse peritoneal cells stimulated with IFN-γ plus LPS (Griess reagent); assay type: cell-based, mice; conditions: substance 50 μmol·l^−1, IFN-g plus LPS, 24 h
Description: (§1) Under in vitro conditions, the effect of the pyrimidine compounds according to this invention was tested in terms of the production of nitric oxide (NO) and in terms of the production of prostaglandin E2 (PGE2) in cultures of the peritoneal cells of mice.
NO is a product of the metabolism of L-arginine, quickly changes to […], which are then measured using the Griess reagent system. Under normal conditions, the production of NO is practically zero. It only occurs after some stimulation. In these experiments, interferon-gamma (IFN-γ) and bacterial lipopolysacharide (LPS) were used as stimulators. The values of NO induced in this way fluctuated in the individual experiments in a range from 52 to 89 μmol·l^−1; for the purposes of comparison between the experiments they were considered as 100%. The production of NO after the application of the substances was expressed in percentage with respect to the control values. (The lower the value, the higher the inhibition effect of the substances on NO production.) IC50 are the concentrations of the substances reducing the production of NO by 50% with respect to the controls.
(§2) Experiments were performed on mice peritoneal cells C57BL/6 (Charles River, Germany—AnLabu).
(§3) NO production was induced using IFN-g (5000 pg/mL) plus LPS (100 pg/mL); evaluated (Griess reagent) after 24 h of the cell cultivation (2×10^6/mL). PGE2 was induced using LPS (10 ng/mL); evaluated (ELISA) following 6 h cultivation of cells (3×10^6/mL). Cell longevity was evaluated using WST-1 (tetrazolium salt), following 24 h cultivation of cells (1×10^6/mL). The values mentioned in the table represent the effects of the substances tested in a concentration of 50 μmol·l^−1.

peritoneal cells of mice = assay: Cell viability of mouse peritoneal cells (WST-1 kit); assay type: cell-based; conditions: substance 50 μmol·l^−1, 24 h; for Cell viability in % of the controls: Table 3A; for Cell viabilities in % of the controls: Table 3B
Description: Cell viability was determined in the standard way using a WST-1 kit (Roche). The values of the viability of the control cells were for the purposes of comparison between experiments considered as 100%. The influence of the substances on the longevity of the cells was evaluated in percentage with respect to the control values.
as §2, §3

[2] = tested on: production of prostaglandin E2 (PGE2); assay: Production of prostaglandin E2 (PGE2) in cultures of mouse peritoneal cells stimulated with LPS (ELISA kit); assay type: cell-based, mice
Description: as §1
The influence on the production of prostaglandin E2 (PGE2) in vitro caused by the activity of the pyrimidine compounds according to the submitted invention was determined in cultures of the peritoneal cells of mice using a commercial kit (R&DSystems). The concentrations of PGE2 after lipopolysacharide (LPS) stimulation reached in the individual experiments values in a range of 22 to 91 ng·ml^−1 and for the purposes of comparison between the experiments were considered as 100%. The influence of the substances on the production of PGE2 was evaluated in percentage with respect to the control values.
as §2, §3

Row | Structure (SMILES) | Production of nitric oxide in % of the controls ([1]; Table 3A) | Cell viability in % of the controls (peritoneal cells of mice) | also measured
1 | CCCCc1c(Cl)nc(C)nc1Cl [Substance 62] | 41.21 ± 5.50 % of the controls | 80.93 ± 0.84 % of the controls | 
2 | Cc1c(Cl)nc(N)nc1Cl [Substance 25] | 47.30 ± 13.48 % of the controls | 98.55 ± 17.60 % of the controls | 
3 | Nc1nc(Br)c(Cc2ccccc2)c(Br)n1 [Substance 40] | 32.45 ± 10.99 % of the controls | 90.18 ± 3.75 % of the controls | 
4 | CCCCc1c(-c2ccncc2)nc(N)nc1-c1ccc(OC)cc1 [Substance 83] |  |  | Production of nitric oxide in % of the controls ([1]; Table 3B): 63.81 ± 5.32; n = 6 % of the controls; Cell viabilities in % of the controls (peritoneal cells of mice): 95.41 ± 4.70; n = 8 % of the controls
5 | C=C(Cl)Cc1c(Cl)nc(NC=O)nc1Cl [Substance 60] | 0.13 ± 0.13 % of the controls | 37.13 ± 1.27 % of the controls | 
6 | CCCCc1c(-c2cccnc2)nc(N)nc1-c1cccnc1 [Substance 46] | 70.00 ± 4.82 % of the controls | 107.08 ± 2.94 % of the controls | 
7 | CCC(C)c1c(Cl)nc(N)nc1Cl (stereo not shown) [Substance 30] | 47.48 ± 6.22 % of the controls | 111.90 ± 9.63 % of the controls | 
8 | CCCCc1c(Cl)nc(N)nc1-c1ccsc1 [Substance 42] | 63.18 ± 0.89 % of the controls | 157.36 ± 5.16 % of the controls | 
9 | CCCCCCc1c(Cl)nc(NC=O)nc1Cl [Substance 55] | 14.77 ± 9.19 % of the controls | 144.97 ± 18.27 % of the controls | 
10 | CCCCc1c(-c2cc3ccccc3o2)nc(N)nc1-c1cc2ccccc2o1 [Substance 47] | 41.23 ± 18.49 % of the controls | 75.01 ± 13.63 % of the controls | 
11 | C#CCc1c(Cl)nc(N)nc1Cl [Substance 33] | 35.98 ± 14.08 % of the controls | 90.58 ± 17.05 % of the controls | 
12 | CCCCc1c(Cl)ncnc1Cl [Substance 61] | 27.38 ± 1.88 % of the controls | 73.73 ± 0.99 % of the controls | 
13 | CCCCc1c(Cl)nc(N)nc1-c1ccccc1 [Substance 41] | 47.82 ± 6.08 % of the controls | 108.24 ± 7.40 % of the controls | 
14 | CCC(C)c1c(I)nc(N)nc1I (stereo not shown) [Substance 36] | 2.80 ± 1.28 % of the controls |  | 
15 | C#CCc1c(Cl)nc(NC=O)nc1Cl [Substance 58] | 0.69 ± 0.26 % of the controls |  | Production of prostaglandins in % of the controls ([2]; Table 3A, substance 50 μmol·l^−1, 6 h): 12.30 ± 0.54 % of the controls
16 | CCCCc1c(Cl)nc(N)nc1-c1cccs1 [Substance 93] |  |  | Production of prostaglandins IC50 (μmol · 1^−1) average value and range of values ([2]; Table 3B, 6 h): 11.47 ± 2.73; n = 4 μmol · 1^−1; Cell viabilities in % of the controls (peritoneal cells of mice): 74.47 ± 0.81; n = 4 % of the controls
17 | Nc1nc(Cl)c(Cc2ccccc2)c(I)n1 [Substance 39] | 18.30 ± 7.66 % of the controls | 67.81 ± 3.08 % of the controls | 
18 | CCc1c(Cl)nc(N)nc1Cl [Substance 26] | 48.59 ± 9.49 % of the controls | 91.53 ± 10.78 % of the controls | 
19 | CCCCc1c(-c2ccncc2)nc(N)nc1-c1cccnc1 [Substance 84] |  |  | Production of nitric oxide in % of the controls ([1]; Table 3B): 47.55 ± 7.12; n = 6 % of the controls; Cell viabilities in % of the controls (peritoneal cells of mice): 109.54 ± 4.48; n = 8 % of the controls
